Values after ≈ are worked out from the molar mass of the structure shown. Values joined by “and” are separate entries in the source; they are usually repeats but may differ in a detail not shown here. Equal values may be shown once.
Columns and labels:
Trypanosoma cruzi [1] = assay: (§1) DNDI: Chagas in Vitro; assay type: functional, organism-based, Tulahuen C4 (LacZ)
Trypanosoma cruzi [2] = assay: as §1; assay type: functional, Tulahuen C4 (LacZ)
[3] = DNDI: Cytotoxicity against L-6 rat myoblasts from skeletal musclE; conditions: L6 rat skeletal muscle myoblasts, IC50
Leishmania donovani = assay: DNDI: Inhibition of formation of Leishmania donovani; assay type: functional, MHOM/ET/67/L82; set-up: concentration or dose not given beside the values
[4] = DNDI: Lipophilicity (gLogD) at pH 3; conditions: buffer
[5] = DNDI: Solubility in phosphate buffer at pH 6.5 determined by nephelometry
in vitro [6] = conditions: human, microsomes
in vitro [7] = conditions: human, microsomes; remark: listed apart in the source
[8] = DNDI: Lipophilicity (gLogD) at pH 7.4; conditions: buffer
[9] = DNDI: Metabolism; assay type: ADME, Microsome; conditions: rat, microsomes; for hepatic extraction ratio: read-out: EH
[10] = DNDI: Solubility in 0.01M HCl at pH 2 determined by nephelometry
Cytochrome P450 3A4 [11] = target: T1, Cytochrome P450 3A4 (Homo sapiens, UniProt P08684)
in vitro [12] = conditions: human, microsomes; remark: listed apart in the source
Cytochrome P450 3A4 [13] = target: T1, Cytochrome P450 3A4; remark: listed apart in the source
[14] = Trypanosoma cruzi, Tulahuen C4 (LacZ)

T1 sequence (P08684 whole entry): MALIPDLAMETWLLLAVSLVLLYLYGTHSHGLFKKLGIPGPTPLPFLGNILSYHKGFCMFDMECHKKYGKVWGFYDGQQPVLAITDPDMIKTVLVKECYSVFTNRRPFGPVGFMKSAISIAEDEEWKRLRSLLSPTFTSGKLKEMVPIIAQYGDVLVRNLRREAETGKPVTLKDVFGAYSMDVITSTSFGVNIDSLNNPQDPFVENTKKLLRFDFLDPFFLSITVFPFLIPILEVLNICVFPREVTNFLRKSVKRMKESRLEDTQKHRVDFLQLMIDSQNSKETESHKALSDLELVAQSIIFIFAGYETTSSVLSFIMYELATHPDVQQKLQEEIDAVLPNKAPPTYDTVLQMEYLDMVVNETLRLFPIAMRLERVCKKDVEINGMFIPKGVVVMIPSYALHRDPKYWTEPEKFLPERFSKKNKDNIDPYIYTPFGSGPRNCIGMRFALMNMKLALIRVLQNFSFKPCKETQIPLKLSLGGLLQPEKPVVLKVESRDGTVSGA

SMILES	IC50 (Trypanosoma cruzi [1]; [14]) [nM]	IC90 (Trypanosoma cruzi [2]; [14]) [nM]	IC50 [3] [nM]	chromatographic logD ([4]; pH 3)	solubility kinetic [5] [µg/mL]	half-life (in vitro [6]) [min]	microsomal CLint (in vitro [7]) [µL/min/mg]	chromatographic logD ([8]; pH 7.4)	solubility kinetic [10] [µg/mL]	hepatic extraction ratio (in vitro [12])	IC50 (Cytochrome P450 3A4 [13]) [nM]	also measured
N#Cc1ccc(N(c2cccnc2)C2CCN(c3ccc(C(F)(F)F)cc3)CC2)cc1	3	9	> 100000	4.6	< 1.6	43.9	39.5	–	–	–	–	IC90 (Trypanosoma cruzi [2]): 10 nM; % inhibition (Leishmania donovani): 28.1%
CC(C)(C)C(=O)N1CCC(N(c2ccc(C(F)(F)F)cc2)c2cccnc2)CC1	2.66	7.59	–	3.1	6.3 (≈ 15.5 µM)	13.8	126	4.2	> 100	0.88	–	half-life [9]: 13.2 min; microsomal CLint [9]: 131 µL/min/mg; hepatic extraction ratio [9]: 0.81; IC50 (Cytochrome P450 3A4 [11]): 1900 nM
O=C(c1ccccc1C(F)(F)F)N1CCC(N(c2ccc(C(F)(F)F)cc2)c2cccnc2)CC1	0.618	1.47	–	3.5	1.6 (≈ 3.24 µM)	7	247	4.4	> 100	0.93	–	% inhibition (Leishmania donovani): 66.3%; half-life [9]: 24 min; microsomal CLint [9]: 72.1 µL/min/mg; hepatic extraction ratio [9]: 0.7; IC50 (Cytochrome P450 3A4 [11]): 1700 nM
FC(F)(F)c1ccc(N2CCC(N(c3ccc(C(F)(F)F)cc3)c3cccnc3)CC2)cc1	15	38	–	–	–	–	–	–	–	–	–	IC50 (Trypanosoma cruzi [1]): 23 nM and 16.5 nM; IC90 (Trypanosoma cruzi [2]): 28 nM and 41 nM; % inhibition (Leishmania donovani): 38.5%
N#Cc1ccccc1N1CCC(N(c2ccc(C(F)(F)F)cc2)c2cccnc2)CC1	3	8	–	4.4	< 1.6	12.8	136	–	> 100	0.88	–	% inhibition (Leishmania donovani): 60.9%
N#Cc1ccc(N2CCC(N(c3ccc(C(F)(F)F)cc3)c3cccnc3)CC2)cc1	7	13	> 100000	4.3	< 1.6	15.5	112	4.7	50 (≈ 118 µM)	–	–	% inhibition (Leishmania donovani): 51.5%
Cc1ncsc1C(=O)N1CCC(N(c2ccc(C(F)(F)F)cc2)c2cccnc2)CC1	6.93	11	67400	2.1	12.5 (≈ 28 µM)	16.6	105	3.3	> 100	0.85	–	half-life [9]: 28.1 min; microsomal CLint [9]: 61.8 µL/min/mg; hepatic extraction ratio [9]: 0.67; IC50 (Cytochrome P450 3A4 [11]): 2900 nM
N#Cc1ccc(N(c2cccnc2)C2CCN(c3ccc(F)c(F)c3)CC2)cc1	1.8	3	> 100000	4.2	< 1.6	23.5	73.7	4.4	6.3 (≈ 16.1 µM)	0.8	4300	–
CN(C)S(=O)(=O)c1cccc(N2CCC(N(c3ccc(C(F)(F)F)cc3)c3cccnc3)CC2)c1	15	31	10400	4.4	< 1.6	6.7	258	4.7	25 (≈ 49.5 µM)	0.94	7000	–
CN(C)S(=O)(=O)c1cccc(N2CCC(N(c3ccc(C#N)cc3)c3cccnc3)CC2)c1	6	11	–	3.6	< 1.6	3.4	504	3.7	50 (≈ 108 µM)	0.97	6000	–
CCC(C(C)=O)N1CCC(N(c2ccc(C(F)(F)F)cc2)c2cccnc2)CC1 (stereo not drawn)	8	20	25000	–	12.5 (≈ 30.8 µM)	–	–	–	> 100	–	10000	chromatographic logD ([4]; pH 3, logD): 1.6; chromatographic logD ([8]; pH 7.4, logD): 4.6; half-life (in vitro [6]; t (1 / 2)): 11.1 min; hepatic extraction ratio (in vitro [12]; EH): 0.9; microsomal CLint (in vitro [7]; CLint): 156 µL/min/mg
CC(=O)C(C)N1CCC(N(c2ccc(C(F)(F)F)cc2)c2cccnc2)CC1 (stereo not drawn)	15	31	69000	–	6.3 (≈ 16.1 µM)	–	–	–	> 100	–	5000	chromatographic logD ([4]; pH 3, logD): 1.3; chromatographic logD ([8]; pH 7.4, logD): 4.2; half-life (in vitro [6]; t (1 / 2)): 21.5 min; hepatic extraction ratio (in vitro [12]; EH): 0.82; microsomal CLint (in vitro [7]; CLint): 80.7 µL/min/mg
N#Cc1cc(C(F)(F)F)ccc1N1CCC(N(c2ccc(C(F)(F)F)cc2)c2cccnc2)CC1	7	11	24300	5.2	< 1.6	32.8	52.9	> 5.3	12.5 (≈ 25.5 µM)	0.75	> 20000	–
N#Cc1cc(C(F)(F)F)ccc1N1CCC(N(c2ccc(Cl)cc2)c2cccnc2)CC1	5	10.5	17700	4.7	< 1.6	16.8	103	> 5.3	25 (≈ 54.7 µM)	0.85	> 20000	–
Cn1nc(C2CC2)cc1N1CCC(N(c2ccc(C(F)(F)F)cc2)c2cccnc2)CC1	7	13.5	30000	4.6	< 1.6	14.6	118	4.8	50 (≈ 113 µM)	0.87	> 20000	–
CCC(C(C)O)N1CCC(N(c2ccc(C(F)(F)F)cc2)c2cccnc2)CC1 (stereo not drawn)	61	> 100	49600	–	25 (≈ 61.4 µM)	–	–	–	> 100	–	17000	chromatographic logD ([4]; pH 3, logD): 1.6; chromatographic logD ([8]; pH 7.4, logD): 4.3; half-life (in vitro [6]; t (1 / 2)): 35.8 min; hepatic extraction ratio (in vitro [12]; EH): 0.73; microsomal CLint (in vitro [7]; CLint): 48.4 µL/min/mg
CC(C)C(O)CN1CCC(N(c2ccc(C(F)(F)F)cc2)c2cccnc2)CC1 (stereo not drawn)	36	> 10000	51500	–	25 (≈ 61.4 µM)	–	–	–	> 100	–	> 20000	chromatographic logD ([4]; pH 3, logD): 1.6; chromatographic logD ([8]; pH 7.4, logD): 3.9; half-life (in vitro [6]; t (1 / 2)): 29.8 min; hepatic extraction ratio (in vitro [12]; EH): 0.76; microsomal CLint (in vitro [7]; CLint): 58.2 µL/min/mg

Source: ChEMBL document CHEMBL3137440, “DNDi T. cruzi fenarimol series dataset from which preclinical candidate EPL-BS0967 was identified (see also related datasets: CHEMBL3137386 and CHEMBL2448688)”
